Measurements as given in patent US20120082647A1, “INTERFERON-BETA FOR USE AS MONOTHERAPY OR IN COMBINATION WITH OTHER CANCER THERAPIES” (priority 2010, published 2012).

Legend:
[1] = test system: SK-MEL-1 human melanoma cells; experiment: SK-MEL-1 melanoma tumor volume in nude mice; type: in vivo; conditions: SK-MEL-1 tumor volume; PD325901 15 mg/kg QD 14 days, pegylated Interferon-beta-1a 10 μg QW 3 weeks
Procedure: Tumors were measured every 3 days using calipers and volume was calculated for a prolate spheroid, defined as:
where L equals the major diameter and W equals the minor diameter.

[2] = test system: ERK phosphorylation; experiment: ERK phosphorylation in SK-MEL-1 tumors (western blot); type: in vivo, nude mice; conditions: SK-MEL-1 tumors removed 8 hours post last dose; FIG. 4
Procedure: Athymic nude mice were inoculated with 2×10^6 SK-MEL-1 human melanoma cells (1 injection in flank; 1 injection per mouse) and 100-200 cubic mm tumors were established. pegylated IFN β-1a was provided in 20 mM acetic acid/sodium acetate at a pH of 4.8 and 150 mM arginine/HCl containing 15 mg/mL human serum albumin (HSA). HSA was used as a control and administered at a concentration of 15 mg/mL. Mice (10 per group) were randomized and treated with either:
i. PEG400 (once a day (QD) for 14 days) and pegylated Interferon-beta-1a (10 μg once a week (QW) for 3 weeks); ii. PD325901 (15 mg/kg once a day (QD) for 14 days) and pegylated Interferon-beta-1a (10 μg once a week (QW) for 3 weeks); iii. PEG400 (once a day (QD) for 14 days) and (HSA) (QW for 3 weeks); iv. PD325901 (15 mg/kg once a day (QD) for 14 days) and HSA (QW for 3 weeks).
Tumors were measured every 3 days using calipers and volume was calculated for a prolate spheroid. The identity of the vehicle control for pegylated interferon-beta-1a vehicle (HSA) and pegylated Interferon-beta-1a was blinded. Tumors were removed 8 hours post last dose and frozen for ERK phosphorylation analysis.

[3] = test system: MDA-MB-231 breast carcinoma cells; experiment: MDA-MB-231 breast carcinoma tumor volume in SCID mice; type: in vivo; conditions: paclitaxel 25 mg/kg I.P. q4d x 3, pegylated interferon beta 1a 0.4 to 1.6 mg/kg SC BIW
Procedure: 8-10 week old SCID mice from Charles River Labs were inoculated subcutaneously with 5×10^6 MDA-MB-231 breast carcinoma cells with 50% matrigel in the flank region. When the average tumor volumes reached approximately 200 mm^3 the tumor-bearing mice were randomized to treatment groups. Pegylated IFN-1a was provided in 20 mM acetic acid/sodium acetate at a pH of 4.8 and 150 mM arginine/HCl (4.8A buffer). Paclitaxel was provided in a Cremophor Ethanol Saline mixture (CES buffer).

Row | SMILES | difference between estimates of least square means between treatment groups and vehicle control group [1] | ERK phosphorylation compared to vehicle and pegylated Interferon-beta-1a treated groups [2] | inhibition of tumor growth, single agent versus vehicle controls [3]
1 | O=C(NOC[C@H](O)CO)c1ccc(F)c(F)c1Nc1ccc(I)cc1F [PD325901, N-[(2R)-2,3-dihydroxypropoxy]-3,4-difluoro-2-[(2-fluoro-4-iodo-phenyl)amino]benzamide] | −4.52 | significant inhibition of ERK phosphorylation | –
2 | CC(=O)O[C@H]1C(=O)[C@@]2(C)[C@H]([C@H](OC(=O)c3ccccc3)[C@]3(O)C[C@H](OC(=O)[C@H](O)[C@@H](NC(=O)c4ccccc4)c4ccccc4)C(C)=C1C3(C)C)[C@]1(OC(C)=O)CO[C@@H]1C[C@@H]2O [paclitaxel] | – | – | greater inhibition of tumor growth compared to mice treated with vehicle controls
